{
  "source": "patent US8357774B2",
  "about": "“Polypeptide and process for producing the same” (National University Corporation Nara Institute of Science …, priority 2007, dated 2013)",
  "tested_on": "NIH3T3 cell",
  "experiment": "NIH3T3 cell adhesion on film",
  "format": "cell-based",
  "conditions": "seeded 10^4 cells/cm^2 in D-MEM, 5% CO2, 37° C., 1 hour, washed three times with PBS, counted at five positions",
  "description": "A NIH3T3 cell suspended in D-MEM was added onto the resulting Gly-Arg-Gly-Asp-Ser-conjugated poly(Pro-Hyp-Gly) film at a ratio of 10^4 cells/cm^2, followed by allowing to stand in 5% CO2 at 37° C. for 1 hour. The non-adhered cell was washed out three times with PBS and the number of adhered cells was counted at five positions on the film.",
  "data": [
    {"substance": "bovine collagen type I: Bovine collagen type I coated on a plastic dish, comparison surface", "values": [
      {"measurement": "number of adhered cells (average)", "result": "6,000 cells/cm^2"}
    ]},
    {"substance": "poly(Pro-Hyp-Gly)", "values": [
      {"measurement": "number of adhered cells (average)", "result": "2,000 cells/cm^2"}
    ]}
  ]
}
